# Measured values reported in patent US6589563B2 (Nanodelivery, Inc., priority 1999, dated 2003).
# Tested on: secretory IgA and serum IgG antibodies
# Experiment: Oral immunization with OVA nanoparticles, ELISA of secretory IgA and serum IgG antibodies
# Format: in vivo, male Sprague-Dawley adult rats
# Details: immunizations at week 0 and week 4
# Protocol: Once the particles were generated and washed they were introduced orally into experimental animals (male Sprague-Dawley adult rats (200-250 g wt., 12-15 weeks old, Harlow). Ten animals were used for each group. About 1 mg of dry weight of nanoparticles in the reaction mixture has been administered orally into the stomach of each animal. The nonloaded (#8) nanoparticles were also administered to control animals, in addition to a soluble antigen (OVA)(#9). ELISA assay of secretory IgA and serum IgG antibodies was carried out as described [Challacombe, et al., Enhanced secretory IgA and systemic IgG antibody response after oral immunization with biodegradable microcapsules containing antigen. Immunology 76: 164-168 (1992)]. Primary and secondary immunization protocol was used, consisting of two immunizations at week 0 and at week 4. […] In another set of experiments nonloaded nanoparticles (no OVA) were separately tested in simulated gastric (pH 2) and intestinal (pH 8.3) solutions for their stability. […] Similar results in terms of antibodies and release characteristics were obtained for tetanus toxoid antigen.
substance,measurement,setting,value
"ovalbumin (egg albumin) [Sol OVA, soluble ovalbumin antigen from Sigma]","Response to oral delivery of nanoparticulate OVA antigen, Mean","Day 28, rats",75.0
same,"Response to oral delivery of nanoparticulate OVA antigen, Mean","Day 56, rats",550.0
